The numbers were not newly measured in patent publication US20210290563A1, “COMPOSITIONS AND METHODS FOR TREATING NEUROP[…]” (BIONICHE GLOBAL DEVELOPMENT, LLC, priority 2017, published 2021), which cites them from elsewhere.

Each structure is given as a SMILES string. Where two headings read alike, the source gives them in different places.

Test in series [1]: not given
This is another data set of the same source.

Take `CC(C)c1cccc(C(C)C)c1OCOP(=O)(O)O` [Fospropofol disodium]: the solubility in water result is reported as “water-soluble”.

Consider `CC(C)c1cccc(C(C)C)c1O` [Propofol, 2,6-diisopropylphenol], for which the solubility in water result is given as “only sparingly soluble in water”. In series [1] (buccal administration), the bioavailability estimates is roughly 50%. Besides, the bioavailability estimates in series [1] (intramuscular administration) is roughly 93%. Further, the bioavailability estimates in series [1] (intranasal administration) is reported as 25-50%. In addition, in series [1] (intravenous administration), the bioavailability estimates is on record as roughly 100%. Further, the bioavailability estimates in series [1] (oral administration) is recorded as 13-27%. For the same molecule, in series [1] (rectal administration), the bioavailability estimates is on record as roughly 25%. The bioavailability estimates in series [1] (transdermal administration) is reported as roughly 10%.
